Reference: patent publication US12103916B2, “Antifungal compounds” (University of Kentucky Research Foundation, priority 2016, dated 2024)
Like-named read-outs stand apart in the source and are kept apart here. Marks after values point to notes of the source that are not given here.

What was measured:
[1] = test system: C. albicans ATCC 64124; assay: MIC determination, strain B; assay type: cell-based, Candida albicans; conditions: Candida albicans, ATCC64124
Description: (§1) The antifungal activity of our new azole compounds 1-9 and 24-41 was first evaluated against a panel of seven Candida albicans strains (A-G), three non-albicans Candida strains […], and three Aspergillus strains (K-M) in a concentration range of 0.03-31.2 μg/mL (Table 1). […] For all of our azole derivatives we report their MIC-0 values against C. albicans ATCC 10231 (strain A) and all Aspergillus strains (K-M), which correspond to complete growth inhibition of these fungi. […] The commercially available antifungals AmB, FLC, ITC, POS, and VOR were used as reference drugs for comparison. The MIC values presented for these five control drugs were either tested herein or correspond to our previously published data^5, 16 as indicated in Table 1.
(§2) Antifungal activity in the absence or presence of serum. The antifungal activity of the newly prepared alkylated piperazine/morpholine-azole hybrids 16-28, of intermediate 14 that we used to verify that only final compounds exert antifungal activity, as well as that of alkylated piperazine/morpholine derivatives 1-10 were first evaluated against a panel of seven C. albicans (ATCC 10231 (A), ATCC 64124(R) (B), ATCC MYA-2876(S) (C), ATCC 90819(R) (D), ATCC MYA-2310(S) (E), ATCC MYA-1237(R) (F), and ATCC MYA-1003(R) (G)), three non-albicans Candida (C. glabrata ATCC 2001 (H), C. krusei ATCC 6258 (I), and C. parapsilosis ATCC 22019 (J)), and three Aspergillus (A. flavus ATCC MYA-3631 (K), A. nidulans ATCC 38163 (L), and A. terreus ATCC MYA-3633 (M)) strains using a concentration range of 0.03-31.3 μg/mL (Table 2).
(§3) Commercially available antifungal agents such as AmB, CAS, FLC, and VOR were used as positive controls for comparison. […] It is important to note that all comparisons to follow will be done by using the MIC values reported in μg/mL as the data were collected that way. However, we also present in parentheses in Table 2 the corresponding values in micromolar.
(§4) We used the commercially available antifungal agents such as AmB, caspofungin (CAS), FLC, and VOR as positive controls for comparison. For derivatives 5-16 as well as the reference drugs AmB and CAS, we reported MIC-0 values, which correspond to no visible growth. […] In this manuscript, we performed all activity comparisons by using the MIC values reported in μg/mL (Note: the corresponding MIC values are also provided in μM into parentheses in Tables 1, 2, S1, and S2).

[2] = test system: C. albicans ATCC MYA-2876(S); assay: MIC determination, strain C; assay type: cell-based, Candida albicans; conditions: Candida albicans
Description: as §1, §2, §3, §4

[3] = test system: C. albicans ATCC 90819(R); assay: MIC determination, strain D; assay type: cell-based, Candida albicans; conditions: Candida albicans, ATCC90819
Description: as §1, §2, §3, §4

[4] = test system: C. albicans ATCC MYA-2310(S); assay: MIC determination, strain E; assay type: cell-based, Candida albicans; conditions: Candida albicans
Description: as §1, §2, §3, §4

[5] = test system: Candida glabrata ATCC 2001; assay: MIC determination, strain H; assay type: cell-based; conditions: Nakaseomyces glabratus, ATCC2001
Description: as §1, §2, §3, §4

[6] = test system: Candida krusei ATCC 6258; assay: MIC determination, strain I; assay type: cell-based; conditions: Pichia kudriavzevii, ATCC6258
Description: as §1, §2, §3, §4

[7] = test system: Candida parapsilosis ATCC 22019; assay: MIC determination, strain J; assay type: cell-based; conditions: Lodderomyces parapsilosis, ATCC22019
Description: as §1, §2, §3, §4

[8] = test system: ergosterol biosynthetic pathway (sterol 14α-demethylase) in C. albicans ATCC 10231 (strain A); assay: Sterol composition by GC-MS, strain A; assay type: cell-based, Candida albicans
Source text: (§5) FIG. 7A-FIG. 7H includes FIG. 7A. A simplified ergosterol biosynthetic pathway and products resulting from inhibition of ERG11. FIG. 7B-G. include GC-MS chromatograms of the sterols extracted from untreated and antifungals treated C. albicans strains. […] The peaks are for lanosterol (1), ergosterol (2), eburicol (3), 14-alpha-methyl ergosta 8,24(28)-dien-3-beta,6-alpha-diol (4), and unknown sterols (5 and 6). FIG. 7H is a table summarizing the percentage of each sterol from panels B-G.
FIG. 13A. A simplified ergosterol biosynthetic pathway and products resulting from inhibition of ERG11. FIG. 13B-FIG. 13F. GC-MS chromatograms of the sterols extracted from untreated and antifungal-treated C. albicans ATCC 10231 (strain A). […] The peaks in these chromatograms are for lanosterol (1), ergosterol (2), eburicol (3), 14α-methyl ergosta-8,24(28)-dien-3β,6α-diol (4), and three unknown sterols (5-7). FIG. 13G includes a table summarizing the percentage of each sterol from panels B-F.
(§6) No drug controls were also performed (FIGS. 7D and G).
Determination of sterol composition in c. albicans in the presence and absence of drugs. […] By using gas chromatography-mass spectrometry (GC-MS), we investigated the potential of the synthetic compounds to exert their antifungal activity by inhibiting the sterol 14α-demethylase enzyme of the ergosterol biosynthetic pathway (FIG. 13). […] A no drug control was also performed (FIG. 13A).
Since out of our compounds displaying antifungal activity only compound 8 caused membrane disruption of C. albicans ATCC 10231 (strain A) in the membrane permeabilization assay (section 2.6), we decided to explore by using gas chromatography-mass spectrometry (GC-MS) the effect of compounds 8 and 9 on sterol composition during ergosterol biosynthesis (the mechanism of action of other conventional azoles). […] We also used VOR at 0.12 μg/mL and no drug control for comparison.

[9] = test system: ergosterol biosynthetic pathway (sterol 14α-demethylase) in C. albicans ATCC 64124 (strain B); assay: Sterol composition by GC-MS, strain B; assay type: cell-based, Candida albicans; conditions: Ex.1 series, 1.95 μg/mL
Source text: as §5, §6

[10] = test system: C. albicans ATCC MYA-2876(S); conditions: Table 1; strain C; control azoles; previously reported (refs 5, 16); cited from earlier work
[11] = test system: C. albicans ATCC MYA-2310(S); conditions: Table 1; strain E; control azoles; previously reported (refs 5, 16); cited from earlier work
[12] = test system: Candida glabrata ATCC 2001; conditions: Table 1; strain H; control azoles; previously reported (refs 5, 16); cited from earlier work
[13] = test system: Candida krusei ATCC 6258; conditions: Table 1; strain I; control azoles; previously reported (refs 5, 16); cited from earlier work
[14] = test system: Candida parapsilosis ATCC 22019; conditions: Table 1; strain J; control azoles; previously reported (refs 5, 16); cited from earlier work
[15] = bulk form; cited from earlier work
[16] = test system: Candida albicans ATCC 10231; conditions: Table 1; strain A; control azoles FLC, ITC, POS, VOR; previously reported (refs 5, 16); cited from earlier work
[17] = test system: C. albicans ATCC 64124; conditions: Table 1; strain B; control azoles; previously reported (refs 5, 16); cited from earlier work
[18] = test system: C. albicans ATCC 90819(R); conditions: Table 1; strain D; control azoles; previously reported (refs 5, 16); cited from earlier work
[19] = test system: C. albicans ATCC MYA-1237(R); conditions: Table 1; strain F; control azoles; previously reported (refs 5, 16); cited from earlier work
[20] = test system: C. albicans ATCC MYA-1003(R); conditions: Table 1; strain G; control azoles; previously reported (refs 5, 16); cited from earlier work
[21] = test system: Aspergillus flavus ATCC MYA-3631; conditions: Table 1; strain K; control azoles; previously reported (refs 5, 16); cited from earlier work
[22] = test system: Aspergillus nidulans ATCC 38163; conditions: Table 1; strain L; control azoles; previously reported (refs 5, 16); cited from earlier work
[23] = test system: Aspergillus terreus ATCC MYA-3633; conditions: Table 1; strain M; control azoles; previously reported (refs 5, 16); cited from earlier work
[24] = read-out: MIC (MIC-2), in parentheses

## OC(Cn1cncn1)(Cn1cncn1)c1ccc(F)cc1F [FLC, fluconazole]
[1]; read-out: MIC (MIC-2)
  MIC: > 125 µg/mL
[1]; [24]
  MIC: > 408 µM
[2]; read-out: MIC (MIC-2)
  MIC: 15.6 µg/mL
[2]; [24]
  MIC: 50.9 µM
[3]; read-out: MIC (MIC-2)
  MIC: > 125 µg/mL
[3]; [24]
  MIC: > 408 µM
[4]; read-out: MIC (MIC-2)
  MIC: > 125 µg/mL
[4]; [24]
  MIC: > 408 µM
[5]; read-out: MIC (MIC-2)
  MIC: > 31.3 µg/mL
[5]; [24]
  MIC: > 102 µM
[6]; read-out: MIC (MIC-2)
  MIC: > 31.3 µg/mL
[6]; [24]
  MIC: > 102 µM
[7]; read-out: MIC (MIC-2)
  MIC: 1.95 µg/mL
[7]; [24]
  MIC: 6.4 µM
[8]; Ex.1 series, 0.125 μg/mL
  ergosterol, percentage of sterols: ~93%
[8]; Ex.2 series, FLC 1.95, VOR 0.12, 20 0.48, 26 0.975 μg/mL
  ergosterol (2), percentage of sterols: 95.90%
[9]
  eburicol, percentage of sterols: ~12%
  ergosterol, percentage of sterols: ~48%
  lanosterol, percentage of sterols: ~30%
[10]
  MIC (MIC-2): 15.6^b μg/mL
[11]
  MIC (MIC-2): >125^b μg/mL
[12]
  MIC (MIC-2): >31.2^c μg/mL
[13]
  MIC (MIC-2): >31.2^c μg/mL
[14]
  MIC (MIC-2): 1.95^c μg/mL
[15]
  solubility in organic solvents such as DMSO: highly soluble
  solubility in water: only slightly soluble

## CCC(C)n1ncn(-c2ccc(N3CCN(c4ccc(OCC5COC(Cn6cncn6)(c6ccc(Cl)cc6Cl)O5)cc4)CC3)cc2)c1=O (stereo not drawn) [ITC, itraconazole]
[16]
  MIC (MIC-2): 0.5^b μg/mL
[17]
  MIC (MIC-2): >62.5^b μg/mL
[10]
  MIC (MIC-2): 7.8^b μg/mL
[18]
  MIC (MIC-2): 31.2^b μg/mL
[11]
  MIC (MIC-2): 31.2^b μg/mL
[19]
  MIC (MIC-2): 31.2^b μg/mL
[20]
  MIC (MIC-2): 31.2^b μg/mL
[12]
  MIC (MIC-2): 7.8^c μg/mL
[13]
  MIC (MIC-2): 0.48^c μg/mL
[14]
  MIC (MIC-2): 0.12^c μg/mL
[21]
  MIC (MIC-2): 0.48^c μg/mL
[22]
  MIC (MIC-2): 0.195^b μg/mL
[23]
  MIC (MIC-2): 0.975^c μg/mL

## CC[C@@H]([C@H](C)O)n1ncn(-c2ccc(N3CCN(c4ccc(OC[C@@H]5CO[C@@](Cn6cncn6)(c6ccc(F)cc6F)C5)cc4)CC3)cc2)c1=O [POS, posaconazole]
[16]
  MIC (MIC-2): 0.5^b μg/mL
[17]
  MIC (MIC-2): >62.5^b μg/mL
[10]
  MIC (MIC-2): 7.8^b μg/mL
[11]
  MIC (MIC-2): 31.2^b μg/mL
[19]
  MIC (MIC-2): 15.6^b μg/mL
[20]
  MIC (MIC-2): 15.6^b μg/mL
[12]
  MIC (MIC-2): 0.12^c μg/mL
[13]
  MIC (MIC-2): 0.06^c μg/mL
[14]
  MIC (MIC-2): <0.03^c μg/mL
[21]
  MIC (MIC-2): 0.24^c μg/mL
[22]
  MIC (MIC-2): 0.195^b μg/mL
[23]
  MIC (MIC-2): 0.48^c μg/mL
